{
  "source": "patent US9684253B2",
  "about": "“Triphenylamine derivative, electrophotographic photosensitive member, and image forming apparatus” (KYOCERA Document Solutions Inc., priority 2014, dated 2017)",
  "data": [
    {"assay": "Evaluation of triphenylamine derivative solubility in tetrahydrofuran", "assay_type": "physicochemical", "conditions": "as shown by Table 1", "protocol": "(§1) Solubility of each of the triphenylamine derivatives (HT-1) to (HT-8), (HT-A), and (HT-B) was evaluated. More specifically, solubility of the obtained triphenylamine derivative was evaluated by calculating percentage solubility according to the following method. In the method, a small amount of tetrahydrofuran was added to 100 mg of the triphenylamine derivative at 25° C. Next, the mixture was shaken and left to stand, and the above steps were repeated in order to find an additive amount W (mg) of tetrahydrofuran for which solubility of the triphenylamine derivative was saturated. The additive amount W was used to calculate the percentage solubility according to equation (1) shown below. […] Solubility (%)={100/(100+W)}×100 Equation (1): […]", "values": [
      {"smiles": "Cc1cccc(N(c2ccc(/C=C/C=C/c3ccccc3)cc2)c2ccc(-c3ccc(N(c4ccc(/C=C/C=C/c5ccccc5)cc4)c4cccc(C)c4)cc3)cc2)c1", "note": "[HT-B, reference compound]", "solubility in a solvent used for photosensitive layer formation (in words)": "poor solubility"},
      {"smiles": "C(/C=C/c1ccc(N(c2ccccc2)c2ccc(-c3ccc(N(c4ccccc4)c4ccc(/C=C/C=C/c5ccccc5)cc4)cc3)cc2)cc1)=C\\c1ccccc1", "note": "[HT-A, reference compound]", "solubility in a solvent used for photosensitive layer formation (in words)": "poor solubility"}
    ]},
    {"assay": "Evaluation of triphenylamine derivative solubility in tetrahydrofuran", "assay_type": "physicochemical", "conditions": "tetrahydrofuran, 25° C., {100/(100+W)}×100", "protocol": "as §1", "values": [
      {"smiles": "CCc1cccc(C)c1N(c1ccc(/C=C/C=C/c2ccc(C)cc2)cc1)c1ccc(-c2ccc(N(c3ccc(/C=C/C=C/c4ccc(C)cc4)cc3)c3c(C)cccc3CC)cc2)cc1", "note": "[HT-2]", "Solubility": "12%"},
      {"smiles": "CCc1cccc(C)c1N(c1ccc(/C=C/C=C/c2cccc(OC)c2)cc1)c1ccc(-c2ccc(N(c3ccc(/C=C/C=C/c4cccc(OC)c4)cc3)c3c(CC)cccc3OC)cc2)cc1", "note": "[HT-5]", "Solubility": "18%"},
      {"smiles": "Cc1cccc(N(c2ccc(/C=C/C=C/c3ccccc3)cc2)c2ccc(-c3ccc(N(c4ccc(/C=C/C=C/c5ccccc5)cc4)c4cccc(C)c4)cc3)cc2)c1", "note": "[HT-B, reference compound]", "Solubility": "7%"},
      {"smiles": "Cc1ccccc1N(c1ccc(/C=C/C=C/c2ccccc2)cc1)c1ccc(-c2ccc(N(c3ccc(/C=C/C=C/c4ccccc4)cc3)c3ccccc3C)cc2)cc1", "note": "[HT-3]", "Solubility": "14%"},
      {"smiles": "C(/C=C/c1ccc(N(c2ccc(-c3ccc(N(c4ccc(/C=C/C=C/c5ccccc5)cc4)c4ccccc4-c4ccccc4)cc3)cc2)c2ccccc2-c2ccccc2)cc1)=C\\c1ccccc1", "note": "[HT-8]", "Solubility": "12%"},
      {"smiles": "CCc1cccc(OC)c1N(c1ccc(/C=C/C=C/c2ccc(C)cc2)cc1)c1ccc(-c2ccc(N(c3ccc(/C=C/C=C/c4ccc(C)cc4)cc3)c3c(CC)cccc3OC)cc2)cc1", "note": "[HT-4]", "Solubility": "20%"},
      {"smiles": "Cc1ccc(N(c2ccc(/C=C/C=C/c3ccccc3)cc2)c2ccc(-c3ccc(N(c4ccc(/C=C/C=C/c5ccccc5)cc4)c4ccc(C)cc4C)cc3)cc2)c(C)c1", "note": "[HT-7]", "Solubility": "14%"},
      {"smiles": "C(/C=C/c1ccc(N(c2ccccc2)c2ccc(-c3ccc(N(c4ccccc4)c4ccc(/C=C/C=C/c5ccccc5)cc4)cc3)cc2)cc1)=C\\c1ccccc1", "note": "[HT-A, reference compound]", "Solubility": "≦1%"},
      {"smiles": "CCc1cccc(C)c1N(c1ccc(/C=C/C=C/c2ccccc2)cc1)c1ccc(-c2ccc(N(c3ccc(/C=C/C=C/c4ccccc4)cc3)c3c(C)cccc3CC)cc2)cc1", "note": "[HT-1]", "Solubility": "12%"}
    ]}
  ]
}
